Test system: HCV replicon
Experiment: microbe, parasite or virus in culture
Type: cell-based
Conditions: Hepatitis C virus, 48 h, read-out: Replicon IC5Os

SMILES	IC50
CCOC(=O)Nc1cccc(-c2c(C#N)c3ccc(OC)cc3n2CC)c1 [Compound 294]	< 0.5 µM
CCn1c(-c2cccc(NC(=O)OCC(C)C)c2)c(C#N)c2ccc(OC)cc21 [Compound 296]	0.5 to 2 µM
CCCOC(=O)Nc1cccc(-c2c(C#N)c3ccc(OC)cc3n2CC)c1 [Compound 297]	0.5 to 2 µM
CCn1c(-c2cccc(NC(=O)OCCOC)c2)c(C#N)c2ccc(OC)cc21 [Compound 298]	0.5 to 2 µM
C=CCOC(=O)Nc1cccc(-c2c(C#N)c3ccc(OC)cc3n2CC)c1 [Compound 299]	0.5 to 2 µM
CCn1c(-c2cccc(NC(=O)OCCCCl)c2)c(C#N)c2ccc(OC)cc21 [Compound 301]	0.5 to 2 µM
CCn1c(-c2cccc(NC(=O)OCCF)c2)c(C#N)c2ccc(OC)cc21 [Compound 302]	0.5 to 2 µM
CCn1c(-c2cccc(NC(=O)OCc3ccccc3)c2)c(C#N)c2ccc(OC)cc21 [Compound 304]	0.5 to 2 µM
CCn1c(-c2cccc(NC(=O)Oc3ccc(Cl)cc3)c2)c(C#N)c2ccc(OC)cc21 [Compound 306]	0.5 to 2 µM
CCn1c(-c2cccc(NC(=O)Oc3ccc(Br)cc3)c2)c(C#N)c2ccc(OC)cc21 [Compound 309]	0.5 to 2 µM
CCn1c(-c2cccc(NC(=O)OC(C)C)c2)c(C#N)c2ccc(OC)cc21 [Compound 310]	0.5 to 2 µM

Same assay, conditions: Hepatitis C virus, 48 h, read-out: Replicon IC5Os μM

SMILES	IC50
CCn1c(NC(=O)c2ccccc2)c(C#N)c2ccc(OC)cc21 [Compound 204]	< 0.5 µM
CCn1c(-c2ccc(OCCN3CC[C@H](O)C3)cc2)c(C#N)c2ccc(OC)cc21 [Compound 264]	0.5 to 2 µM

Same assay, conditions: Replicon IC50 values are determined by firefly luciferase signal; bicistronic replicon, 2 days; read-out: Replicon IC5Os

SMILES	IC50
CCn1c(C#Cc2ccc(Cl)cc2)c(C#N)c2ccc(O)cc21 [Compound 187]	0.5 to 2 µM
CCn1c(-c2ccc(NS(=O)(=O)CC)cc2)c(C#N)c2ccc(O)cc21 [Compound 190]	0.5 to 2 µM
CCn1c(-c2ccc(N(C)S(C)(=O)=O)cc2)c(C#N)c2ccc(O)cc21 [Compound 191]	> 2 µM
CCn1c(C#Cc2ccc(NC(=O)C3CCCC3)cc2)c(C#N)c2ccc(O)cc21 [Compound 195]	0.5 to 2 µM
CCn1c(C#Cc2ccc(OC)cc2)c(C#N)c2ccc(C(F)(F)F)cc21 [Compound 199]	> 2 µM
CCn1c(C#Cc2cccc(OC)c2)c(C#N)c2ccc(C(F)(F)F)cc21 [Compound 202]	0.5 to 2 µM
CCn1c(NC(C)=O)c(C#N)c2ccc(OC)cc21 [Compound 203]	0.5 to 2 µM
CCn1c(C#Cc2cccc(NS(C)(=O)=O)c2)c(C#N)c2ccc(OC)cc21 [Compound 208]	0.5 to 2 µM
CCn1c(C#Cc2cccc(NS(=O)(=O)C(C)C)c2)c(C#N)c2ccc(OC)cc21 [Compound 210]	0.5 to 2 µM
CCn1c(C#Cc2cccc(NC(=O)C(C)(C)C)c2)c(C#N)c2ccc(OC)cc21 [Compound 212]	0.5 to 2 µM
CCn1c(NC(=O)c2cccc(F)c2)c(C#N)c2ccc(OC)cc21 [Compound 214]	< 0.5 µM
CCn1c(NC(=O)c2ccc(C#N)cc2)c(C#N)c2ccc(OC)cc21 [Compound 215]	0.5 to 2 µM
CCn1c(C#Cc2cccc(N3CCNC3=O)c2)c(C#N)c2ccc(OC)cc21 [Compound 222]	0.5 to 2 µM
CCn1c(C#Cc2ccc(N)cc2)c(C#N)c2cc(OC)ccc21 [Compound 223]	0.5 to 2 µM
CCn1c(C#Cc2ccc(NC(C)=O)cc2)c(C#N)c2cc(OC)ccc21 [Compound 224]	0.5 to 2 µM
CCC(=O)Nc1ccc(C#Cc2c(C#N)c3cc(OC)ccc3n2CC)cc1 [Compound 225]	0.5 to 2 µM
CCn1c(C#Cc2ccc(NC(=O)COC)cc2)c(C#N)c2cc(OC)ccc21 [Compound 228]	> 2 µM
CCOc1ccc(-c2c(C#N)c3cc(OC)ccc3n2CC)cc1 [Compound 229]	> 2 µM
COc1ccc2c(C#N)c(C#Cc3cccc4ccccc34)[nH]c2c1 [Compound 230]	> 2 µM
COc1ccc2c(C#N)c(C#Cc3cccc(O)c3)[nH]c2c1 [Compound 231]	> 2 µM
COc1ccc2c(C#N)c(C#Cc3cccc(Cl)c3)[nH]c2c1 [Compound 232]	> 2 µM
COc1ccc2c(C#N)c(C#Cc3ccc(N)cc3)[nH]c2c1 [Compound 234]	> 2 µM
COc1ccc2c(C#N)c(C#Cc3ccc(N(C)C)cc3)[nH]c2c1 [Compound 235]	0.5 to 2 µM
COc1ccc2c(C#N)c(C#Cc3ccc(C)cc3)[nH]c2c1 [Compound 236]	> 2 µM
COc1cccc(C#Cc2[nH]c3cc(OC)ccc3c2C#N)c1 [Compound 237]	> 2 µM

SMILES	IC50
COc1ccc2c(C#N)c(C#Cc3ccccc3)[nH]c2c1 [Compound 238]	> 2 µM
CCn1c(-c2ccc(N)cc2)c(C#N)c2cc(OC)ccc21 [Compound 239]	> 2 µM
CCn1c(-c2ccc(C(=O)OC)cc2)c(C#N)c2cc(OC)ccc21 [Compound 240]	> 2 µM
CCn1c(-c2ccc(NC(C)=O)cc2)c(C#N)c2cc(OC)ccc21 [Compound 242]	> 2 µM
CCn1c(-c2ccc(C(=O)N3CCCC3)cc2)c(C#N)c2cc(OC)ccc21 [Compound 246]	> 2 µM
CCn1c(-c2ccc(O)cc2)c(C#N)c2ccc(OC)cc21 [Compound 247]	> 2 µM
CCn1c(-c2ccc(OCCO)cc2)c(C#N)c2ccc(OC)cc21 [Compound 249]	0.5 to 2 µM
CCn1c(-c2ccc(SC)cc2)c(C#N)c2ccc(OC)cc21 [Compound 250]	> 2 µM
COc1ccc2c(C#N)c(-c3ccc4c(c3)OCO4)n(C)c2c1 [Compound 254]	> 2 µM
CCn1c(-c2ccc(O)cc2)c(C#N)c2ccc(C(F)(F)F)cc21 [Compound 256]	> 2 µM
CCn1c(-c2ccc(N)cc2)c(C#N)c2ccc(C(F)(F)F)cc21 [Compound 257]	> 2 µM
CCn1c(-c2cccc(N)c2)c(C#N)c2ccc(C(F)(F)F)cc21 [Compound 258]	> 2 µM
CCn1c(-c2ccc(N(C)C)cc2)c(C#N)c2ccc(C(F)(F)F)cc21 [Compound 259]	> 2 µM
CCn1c(-c2ccc3c(c2)OCO3)c(C#N)c2ccc(C(F)(F)F)cc21 [Compound 260]	> 2 µM
CCn1c(-c2ccc(OCCN3CCN(C)CC3)cc2)c(C#N)c2ccc(OC)cc21 [Compound 263]	0.5 to 2 µM
CCOc1ccc2c(C#N)c(-c3ccc(C(=O)N4CCOCC4)cc3)n(CC)c2c1 [Compound 270]	> 2 µM
CCn1c(-c2ccc(C(=O)N3CCOCC3)cc2)c(C#N)c2ccc(OC(C)C)cc21 [Compound 271]	0.5 to 2 µM
CCn1c(-c2ccc(NS(=O)(=O)C3CC3)cc2)c(C#N)c2ccc(OC)cc21 [Compound 272]	0.5 to 2 µM
CCn1c(-c2ccc(NS(=O)(=O)CCl)cc2)c(C#N)c2ccc(OC)cc21 [Compound 273]	> 2 µM
CCn1c(-c2ccc(S(=O)(=O)N(C)C)cc2)c(C#N)c2ccc(OC)cc21 [Compound 275]	> 2 µM
CCn1c(-c2ccc(S(=O)(=O)N3CCOCC3)cc2)c(C#N)c2ccc(OC)cc21 [Compound 276]	> 2 µM
CCn1c(-c2ccc(S(=O)(=O)NC)cc2)c(C#N)c2ccc(OC)cc21 [Compound 277]	> 2 µM
CCn1c(-c2ccc(S(N)(=O)=O)cc2)c(C#N)c2ccc(OC)cc21 [Compound 278]	> 2 µM
CCn1c(-c2cc3ccccc3o2)c(C#N)c2ccc(OC)cc21 [Compound 282]	> 2 µM
CCn1c(-c2ccc(-c3ccccc3)cc2)c(C#N)c2ccc(OC)cc21 [Compound 283]	> 2 µM

SMILES	IC50
CCn1c(-c2cc3ccccc3s2)c(C#N)c2ccc(OC)cc21 [Compound 286]	0.5 to 2 µM
CCn1c(-c2cccc(NS(=O)(=O)CC)c2)c(C#N)c2ccc(OC)cc21 [Compound 287]	> 2 µM
CCn1c(-c2cccc(NS(=O)(=O)CCCCl)c2)c(C#N)c2ccc(OC)cc21 [Compound 289]	> 2 µM
CCn1c(-c2cccc(C(=O)NCCN3CCOCC3)c2)c(C#N)c2ccc(OC)cc21 [Compound 290]	> 2 µM
CCn1c(-c2cccc(C(N)=O)c2)c(C#N)c2ccc(OC)cc21 [Compound 291]	> 2 µM
CCNC(=O)c1cccc(-c2c(C#N)c3ccc(OC)cc3n2CC)c1 [Compound 292]	> 2 µM
CCn1c(-c2cccc(NC(=O)Oc3ccccc3)c2)c(C#N)c2ccc(OC)cc21 [Compound 293]	> 2 µM
CCCCOC(=O)Nc1cccc(-c2c(C#N)c3ccc(OC)cc3n2CC)c1 [Compound 300]	0.5 to 2 µM
CCn1c(-c2cccc(NC(=O)Oc3ccc(OC)cc3)c2)c(C#N)c2ccc(OC)cc21 [Compound 305]	> 2 µM
CCn1c(-c2cccc(NC(=O)Oc3ccc(F)cc3)c2)c(C#N)c2ccc(OC)cc21 [Compound 307]	0.5 to 2 µM
CCn1c(-c2ccc(NC(=O)OCC(C)C)cc2)c(C#N)c2ccc(OC)cc21 [Compound 311]	> 2 µM
CCCOC(=O)Nc1ccc(-c2c(C#N)c3ccc(OC)cc3n2CC)cc1 [Compound 312]	> 2 µM
CCn1c(-c2ccc(NC(=O)OCCOC)cc2)c(C#N)c2ccc(OC)cc21 [Compound 313]	> 2 µM
C=CCOC(=O)Nc1ccc(-c2c(C#N)c3ccc(OC)cc3n2CC)cc1 [Compound 314]	> 2 µM
CCn1c(-c2ccc(NC(=O)OCCCCl)cc2)c(C#N)c2ccc(OC)cc21 [Compound 315]	> 2 µM
CCn1c(-c2ccc(NC(=O)OC3C[C@H](C)CC[C@H]3C(C)C)cc2)c(C#N)c2ccc(OC)cc21 (some centres unmarked) [Compound 316]	> 2 µM
CCn1c(-c2ccc(NC(=O)OCCF)cc2)c(C#N)c2ccc(OC)cc21 [Compound 317]	> 2 µM
CCn1c(-c2ccc(NC(=O)Oc3ccc(Cl)cc3)cc2)c(C#N)c2ccc(OC)cc21 [Compound 318]	> 2 µM
CCn1c(-c2ccc(NC(=O)Oc3ccc(F)cc3)cc2)c(C#N)c2ccc(OC)cc21 [Compound 319]	> 2 µM
CCn1c(-c2ccc(NC(=O)Oc3ccc(C)cc3)cc2)c(C#N)c2ccc(OC)cc21 [Compound 320]	> 2 µM
CCn1c(-c2cccc(C(=O)NCCCN3CCOCC3)c2)c(C#N)c2ccc(OC)cc21 [Compound 323]	> 2 µM
CCn1c(-c2cccc(NC(=O)CCl)c2)c(C#N)c2ccc(OC)cc21 [Compound 324]	> 2 µM
CCn1c(-c2cccc(NC(=O)c3ccccc3)c2)c(C#N)c2ccc(OC)cc21 [Compound 326]	> 2 µM

Reference: patent US8013006B2
